This note sets out measurements from publication PMC5218480 (PLoS ONE, 2017).

For the assay, the system named is MV-4-11 cells. Briefly: Gene expression microarray analysis (Affymetrix PrimeView) and GSEA. Format: cell-based, human. Conditions: ProbeSet 11728271_at; LIST B. Also noted: RFU PODN (11730768_x_at) / Fold change /veh PODN (11730768_x_at) / RFU LINC00158 (11744669_a_at) / Fold change /veh LINC00158 (11744669_a_at) / RFU DUSP10 (11751237_a_at) / Fold change /veh DUSP10 (11751237_a_at) / RFU ID3 (11757404_x_at) / Fold change /veh ID3 (11757404_x_at) / RFU PLEKHG5 (11737974_s_at) / Fold change /veh PLEKHG5 (11737974_s_at) / RFU LRRC4B (11730491_at) / Fold change /veh LRRC4B (11730491_at) / RFU GIMAP4 (11747438_a_at) / Fold change /veh GIMAP4 (11747438_a_at) / RFU KRT8 (11758183_x_at) / Fold change /veh KRT8 (11758183_x_at) / RFU CNN1 (11734310_a_at) / Fold change /veh CNN1 (11734310_a_at) / RFU VPS37D (11726825_at) / Fold change /veh VPS37D (11726825_at) / RFU C10orf10 (11716522_x_at) / Fold change /veh C10orf10 (11716522_x_at) / RFU KIR2DL2 /// KIR2DL4 /// KIR2DL5A /// KIR2DL5B /// KIR2DS1 /// KIR2DS2 /// KIR2DS3 /// KIR2DS4 /// KIR3DL3 /// KIR3DL3 /// KIR3DS1 (11738374_at) / Fold change /veh KIR2DL2 /// KIR2DL4 /// KIR2DL5A /// KIR2DL5B /// KIR2DS1 /// KIR2DS2 /// KIR2DS3 /// KIR2DS4 /// KIR3DL3 /// KIR3DL3 /// KIR3DS1 (11738374_at) / RFU C1QL1 (11718748_at) / Fold change /veh C1QL1 (11718748_at) / RFU TMPRSS4 (11747572_a_at) / Fold change /veh TMPRSS4 (11747572_a_at) / RFU HAMP (11756126_x_at) / Fold change /veh HAMP (11756126_x_at) / RFU RNFT2 (11725882_a_at) / Fold change /veh RNFT2 (11725882_a_at) / RFU NR4A2 (11747474_a_at) / Fold change /veh NR4A2 (11747474_a_at) / RFU ABCC12 (11746883_a_at) / Fold change /veh ABCC12 (11746883_a_at) / RFU TMEM136 (11760407_x_at) / Fold change /veh TMEM136 (11760407_x_at) / RFU CLDN22 /// WWC2 (11732394_at) / Fold change /veh CLDN22 /// WWC2 (11732394_at) / RFU HLA-DPB1 (11760878_x_at) / Fold change /veh HLA-DPB1 (11760878_x_at) / RFU SPINT1 (11716480_a_at) / Fold change /veh SPINT1 (11716480_a_at) / RFU GAP43 (11754022_s_at) / Fold change /veh GAP43 (11754022_s_at) / RFU A4GNT (11735810_at) / Fold change /veh A4GNT (11735810_at) / RFU PRB3 (11715151_x_at) / Fold change /veh PRB3 (11715151_x_at) / RFU TUBB4B (11761932_at) / Fold change /veh TUBB4B (11761932_at) / RFU CAPN14 (11732068_a_at) / Fold change /veh CAPN14 (11732068_a_at) / RFU TMCC2 (11721928_a_at) / Fold change /veh TMCC2 (11721928_a_at) / RFU IRGQ (11745062_a_at) / Fold change /veh IRGQ (11745062_a_at) / RFU FAM174B (11720279_a_at) / Fold change /veh FAM174B (11720279_a_at) / RFU TMPRSS4 (11748680_a_at) / Fold change /veh TMPRSS4 (11748680_a_at) / RFU FAM212B (11763350_a_at) / Fold change /veh FAM212B (11763350_a_at) / RFU PLEKHG5 (11743358_a_at) / Fold change /veh PLEKHG5 (11743358_a_at) / RFU ZSCAN30 (11745921_a_at) / Fold change /veh ZSCAN30 (11745921_a_at) / RFU CMKLR1 (11741424_a_at) / Fold change /veh CMKLR1 (11741424_a_at) / RFU LOC101060620 /// MAPK8IP1 (11723275_at) / Fold change /veh LOC101060620 /// MAPK8IP1 (11723275_at) / RFU SPTSSB (11747773_x_at) / Fold change /veh SPTSSB (11747773_x_at) / RFU PRSS12 (11739890_at) / Fold change /veh PRSS12 (11739890_at) / RFU BIN1 (11741810_x_at) / Fold change /veh BIN1 (11741810_x_at) / RFU WNT11 (11732464_a_at) / Fold change /veh WNT11 (11732464_a_at) / RFU C10orf10 (11716521_a_at) / Fold change /veh C10orf10 (11716521_a_at) / RFU C5orf56 (11738089_at) / Fold change /veh C5orf56 (11738089_at) / RFU CYB561 (11721691_x_at) / Fold change /veh CYB561 (11721691_x_at) / RFU ANKRD19P (11752326_a_at) / Fold change /veh ANKRD19P (11752326_a_at) / RFU OR2T12 /// OR2T33 /// OR2T8 (11738714_s_at) / Fold change /veh OR2T12 /// OR2T33 /// OR2T8 (11738714_s_at) / RFU VCAN (11748164_a_at) / Fold change /veh VCAN (11748164_a_at) / RFU JSRP1 (11732532_at) / Fold change /veh JSRP1 (11732532_at) / RFU KRTAP10-11 (11738290_x_at) / Fold change /veh KRTAP10-11 (11738290_x_at) / RFU MYO3A (11730013_a_at) / Fold change /veh MYO3A (11730013_a_at) / RFU EBF3 (11725865_a_at) / Fold change /veh EBF3 (11725865_a_at) / RFU CAMK2N1 (11719241_x_at) / Fold change /veh CAMK2N1 (11719241_x_at) / RFU C5orf56 (11738088_a_at) / Fold change /veh C5orf56 (11738088_a_at) / RFU OLFML3 (11715873_a_at) / Fold change /veh OLFML3 (11715873_a_at) / RFU LOC100653217 /// NTM (11731650_a_at) / Fold change /veh LOC100653217 /// NTM (11731650_a_at) / RFU MAPK11 (11762145_a_at) / Fold change /veh MAPK11 (11762145_a_at) / RFU FIZ1 (11724087_x_at) / Fold change /veh FIZ1 (11724087_x_at) / RFU OASL (11726364_x_at) / Fold change /veh OASL (11726364_x_at) / RFU SOX15 (11748057_x_at) / Fold change /veh SOX15 (11748057_x_at) / RFU CD79A (11719716_a_at) / Fold change /veh CD79A (11719716_a_at) / RFU HIST1H1D (11736915_at) / Fold change /veh HIST1H1D (11736915_at) / RFU CASKIN2 (11723855_a_at) / Fold change /veh CASKIN2 (11723855_a_at) / RFU LOC730098 (11760151_x_at) / Fold change /veh LOC730098 (11760151_x_at) / RFU OR4N2 (11742367_at) / Fold change /veh OR4N2 (11742367_at) / RFU PRRT2 (11749266_a_at) / Fold change /veh PRRT2 (11749266_a_at) / RFU SNX32 (11753110_a_at) / Fold change /veh SNX32 (11753110_a_at) / RFU CDHR5 (11726645_a_at) / Fold change /veh CDHR5 (11726645_a_at) / RFU RCAN1 (11760418_a_at) / Fold change /veh RCAN1 (11760418_a_at) / RFU FAM167A (11723789_a_at) / Fold change /veh FAM167A (11723789_a_at) / RFU FAM26E (11764081_at) / Fold change /veh FAM26E (11764081_at) / RFU ISYNA1 (11749810_s_at) / Fold change /veh ISYNA1 (11749810_s_at) / RFU ACY1 (11761880_at) / Fold change /veh ACY1 (11761880_at) / RFU 11764098_at / Fold change /veh 11764098_at / RFU SAMD14 (11745864_x_at) / Fold change /veh SAMD14 (11745864_x_at) / RFU NPB (11741838_a_at) / Fold change /veh NPB (11741838_a_at) / RFU TMPRSS6 (11731388_a_at) / Fold change /veh TMPRSS6 (11731388_a_at) / RFU KRTAP10-2 (11738614_at) / Fold change /veh KRTAP10-2 (11738614_at) / RFU ARHGAP8 /// PRR5-ARHGAP8 (11727945_x_at) / Fold change /veh ARHGAP8 /// PRR5-ARHGAP8 (11727945_x_at) / RFU KRTAP5-7 /// NADSYN1 (11734609_at) / Fold change /veh KRTAP5-7 /// NADSYN1 (11734609_at) / RFU RASL12 (11751679_a_at) / Fold change /veh RASL12 (11751679_a_at) / RFU CDKN2B (11736163_a_at) / Fold change /veh CDKN2B (11736163_a_at) / RFU PRF1 (11729649_at) / Fold change /veh PRF1 (11729649_at) / RFU, ZNF638 /// ZNF638-IT1 / Fold change vs veh, ZNF638 /// ZNF638-IT1 / RFU, PANK3 / Fold change vs veh, PANK3 / RFU, SH3YL1 / Fold change vs veh, SH3YL1 / RFU, ZEB2 / Fold change vs veh, ZEB2 / RFU, NRIP1 / Fold change vs veh, NRIP1 / RFU, PTTG1IP / Fold change vs veh, PTTG1IP / RFU, CAPN2 / Fold change vs veh, CAPN2 / RFU, MED14 / Fold change vs veh, MED14 / RFU, SNORA58 / Fold change vs veh, SNORA58 / RFU, C1orf63 / Fold change vs veh, C1orf63 / RFU, LRRFIP1 / Fold change vs veh, LRRFIP1 / RFU, NDUFAF7 / Fold change vs veh, NDUFAF7 / RFU, SLC12A2 / Fold change vs veh, SLC12A2 / RFU, IBTK / Fold change vs veh, IBTK / RFU, ESF1 / Fold change vs veh, ESF1 / Fold change vs veh, TMEM50B / RFU, TAOK1 / Fold change vs veh, TAOK1 / RFU, ACBD3 / Fold change vs veh, ACBD3 / RFU, TMA16 / Fold change vs veh, TMA16 / RFU, RWDD3 / Fold change vs veh, RWDD3 / RFU, BCAT1 / Fold change vs veh, BCAT1 / RFU, EDEM3 / Fold change vs veh, EDEM3 / RFU, TMEM33 / Fold change vs veh, TMEM33 / RFU, WDR75 / Fold change vs veh, WDR75 / RFU, AHCTF1 / Fold change vs veh, AHCTF1 / RFU, TFRC / Fold change vs veh, TFRC / RFU, ZDHHC17 / Fold change vs veh, ZDHHC17 / RFU, NOM1 / Fold change vs veh, NOM1 / RFU, ARL8B / Fold change vs veh, ARL8B / RFU, ZBTB11 / Fold change vs veh, ZBTB11 / RFU, TAMM41 / Fold change vs veh, TAMM41 / RFU, KIAA1704 /// LOC100996395 / Fold change vs veh, KIAA1704 /// LOC100996395 / RFU, ING1 / Fold change vs veh, ING1 / RFU, TRMT61B / Fold change vs veh, TRMT61B / RFU, FUBP3 / Fold change vs veh, FUBP3 / RFU, TP53 / Fold change vs veh, TP53 / RFU, TNKS2 / Fold change vs veh, TNKS2 / RFU, ZFP14 / Fold change vs veh, ZFP14 / RFU, ACTR2 / Fold change vs veh, ACTR2 / RFU, PPP3R1 / Fold change vs veh, PPP3R1 / RFU, PIK3R1 / Fold change vs veh, PIK3R1 / RFU, HNRNPA1 / Fold change vs veh, HNRNPA1 / RFU, RNF170 / Fold change vs veh, RNF170 / RFU, ZNF28 / Fold change vs veh, ZNF28 / RFU, RNGTT / Fold change vs veh, RNGTT / RFU, OGT / Fold change vs veh, OGT / RFU, BRD1 / Fold change vs veh, BRD1 / RFU, MARS / Fold change vs veh, MARS / RFU, ZNF655 / Fold change vs veh, ZNF655 / RFU, FAHD1 / Fold change vs veh, FAHD1 / RFU, BDP1 / Fold change vs veh, BDP1 / RFU, LRRCC1 / Fold change vs veh, LRRCC1 / RFU, ARID1A / Fold change vs veh, ARID1A / RFU, ZNF146 / Fold change vs veh, ZNF146 / RFU, ZNF330 / Fold change vs veh, ZNF330 / RFU, GPN3 / Fold change vs veh, GPN3 / RFU, C9orf123 / Fold change vs veh, C9orf123 / RFU, N4BP2L2 / Fold change vs veh, N4BP2L2 / RFU, ARFIP1 / Fold change vs veh, ARFIP1 / RFU, FAM179B / Fold change vs veh, FAM179B / RFU, BCL10 / Fold change vs veh, BCL10 / RFU, UHRF1BP1L / Fold change vs veh, UHRF1BP1L / RFU, BET1 / Fold change vs veh, BET1 / RFU, CNOT2 / Fold change vs veh, CNOT2 / RFU, ZNF268 / Fold change vs veh, ZNF268 / Fold change vs veh, ZNF507 / RFU, DGCR2 / Fold change vs veh, DGCR2 / RFU, WDSUB1 / Fold change vs veh, WDSUB1 / Fold change vs veh, HSP90B1 /// MIR3652 / RFU, ADSS / Fold change vs veh, ADSS / RFU, GK / Fold change vs veh, GK / RFU, ZNF148 / Fold change vs veh, ZNF148 / RFU, TAF9 / Fold change vs veh, TAF9 / RFU, SLC1A5 / Fold change vs veh, SLC1A5 / RFU, SLMO2 / Fold change vs veh, SLMO2 / RFU, ABCC4 / Fold change vs veh, ABCC4 / RFU, LOC101060439 /// RAP1B / Fold change vs veh, LOC101060439 /// RAP1B / RFU, RFX7 / Fold change vs veh, RFX7 / RFU, GTPBP10 / Fold change vs veh, GTPBP10 / RFU, CNEP1R1 / Fold change vs veh, CNEP1R1 / RFU, BIVM-ERCC5 /// ERCC5 / Fold change vs veh, BIVM-ERCC5 /// ERCC5 / RFU, ILF3 / Fold change vs veh, ILF3 / RFU 11762660_at / Fold change /veh 11762660_at / RFU VCAN (11757783_s_at) / Fold change /veh VCAN (11757783_s_at) / RFU DDX43 (11728927_at) / Fold change /veh DDX43 (11728927_at) / RFU KRT8 (11758188_x_at) / Fold change /veh KRT8 (11758188_x_at) / RFU NKD1 (11759106_at) / Fold change /veh NKD1 (11759106_at) / RFU SRD5A1 (11742802_a_at) / Fold change /veh SRD5A1 (11742802_a_at) / RFU TPSAB1 /// TPSB2 (11721975_s_at) / Fold change /veh TPSAB1 /// TPSB2 (11721975_s_at) / RFU GSTM3 (11746129_a_at) / Fold change /veh GSTM3 (11746129_a_at) / RFU IL23R (11737362_x_at) / Fold change /veh IL23R (11737362_x_at) / RFU TMEM51 (11727254_a_at) / Fold change /veh TMEM51 (11727254_a_at) / RFU PIWIL2 (11732686_x_at) / Fold change /veh PIWIL2 (11732686_x_at) / RFU ORM1 (11744905_x_at) / Fold change /veh ORM1 (11744905_x_at) / RFU CCDC152 (11743942_at) / Fold change /veh CCDC152 (11743942_at) / RFU ECM1 (11717891_a_at) / Fold change /veh ECM1 (11717891_a_at) / RFU IL23R (11748794_a_at) / Fold change /veh IL23R (11748794_a_at) / RFU TNFAIP8L3 (11732012_x_at) / Fold change /veh TNFAIP8L3 (11732012_x_at) / RFU MBOAT4 (11741988_at) / Fold change /veh MBOAT4 (11741988_at) / RFU 11764193_at / Fold change /veh 11764193_at / RFU TMEM53 (11763286_at) / Fold change /veh TMEM53 (11763286_at) / RFU MAGEB2 (11727129_at) / Fold change /veh MAGEB2 (11727129_at) / RFU TMEM200A (11744735_a_at) / Fold change /veh TMEM200A (11744735_a_at) / RFU CCDC152 (11751479_a_at) / Fold change /veh CCDC152 (11751479_a_at) / RFU FAM211A (11726209_a_at) / Fold change /veh FAM211A (11726209_a_at) / RFU RGS16 (11746705_a_at) / Fold change /veh RGS16 (11746705_a_at) / RFU VCAN (11755009_s_at) / Fold change /veh VCAN (11755009_s_at) / RFU RHOB (11743442_s_at) / Fold change /veh RHOB (11743442_s_at) / RFU RGS16 (11720943_a_at) / Fold change /veh RGS16 (11720943_a_at) / RFU RGS16 (11720944_at) / Fold change /veh RGS16 (11720944_at) / RFU, VPS4B / Fold change vs veh, VPS4B / RFU, CREB1 / Fold change vs veh, CREB1 / RFU, DNAJC13 / Fold change vs veh, DNAJC13 / RFU, GNAQ / Fold change vs veh, GNAQ / RFU, CDK5R1 / Fold change vs veh, CDK5R1 / RFU, ZRANB3 / Fold change vs veh, ZRANB3 / RFU, CUL4A / Fold change vs veh, CUL4A / RFU, CCNY / Fold change vs veh, CCNY / RFU, UFL1 / Fold change vs veh, UFL1 / RFU, COG3 / Fold change vs veh, COG3 / RFU, DIAPH2 / Fold change vs veh, DIAPH2 / RFU, SKA2 / Fold change vs veh, SKA2 / RFU, AFF3 / Fold change vs veh, AFF3 / RFU, LMF1 / Fold change vs veh, LMF1 / RFU, IPO11 / Fold change vs veh, IPO11 / RFU, DFFB / Fold change vs veh, DFFB / RFU, FOXP1 / Fold change vs veh, FOXP1 / RFU, CARD8 / Fold change vs veh, CARD8 / RFU, STRN3 / Fold change vs veh, STRN3 / RFU, ADK / Fold change vs veh, ADK / RFU, RASSF2 / Fold change vs veh, RASSF2 / RFU, WIPF1 / Fold change vs veh, WIPF1 / RFU, LARP1B / Fold change vs veh, LARP1B / RFU, RASA1 / Fold change vs veh, RASA1 / RFU, RB1 / Fold change vs veh, RB1 / RFU, PPFIA1 / Fold change vs veh, PPFIA1 / RFU, MAT2A / Fold change vs veh, MAT2A / RFU, CCT5 / Fold change vs veh, CCT5 / RFU, WDR92 / Fold change vs veh, WDR92 / RFU, CUX1 / Fold change vs veh, CUX1 / RFU, TTC7A / Fold change vs veh, TTC7A / RFU, TMEM135 / Fold change vs veh, TMEM135 / RFU, DEPTOR / Fold change vs veh, DEPTOR / RFU, CPM / Fold change vs veh, CPM / RFU, DNAJB6 / Fold change vs veh, DNAJB6 / RFU, CACNA2D3 / Fold change vs veh, CACNA2D3 / RFU, DTX4 / Fold change vs veh, DTX4 / RFU, TFCP2 / Fold change vs veh, TFCP2 / RFU, GMCL1 /// GMCL1P1 / Fold change vs veh, GMCL1 /// GMCL1P1 / RFU, AEBP2 / Fold change vs veh, AEBP2 / RFU, SNHG1 /// SNORD22 /// SNORD25 /// SNORD26 /// SNORD27 /// SNORD28 /// SNORD29 /// SNORD31 / Fold change vs veh, SNHG1 /// SNORD22 /// SNORD25 /// SNORD26 /// SNORD27 /// SNORD28 /// SNORD29 /// SNORD31 / Fold change (Aza/veh), C12orf56 (ProbeSet 11735607_a_at) / Fold change (ACY-1035/veh), C12orf56 (ProbeSet 11735607_a_at) / Fold change (Aza/veh), FGFR1OP (ProbeSet 11751329_s_at) / Fold change (ACY-1035/veh), FGFR1OP (ProbeSet 11751329_s_at) / Fold change (Aza/veh), VPS36 (ProbeSet 11739960_a_at) / Fold change (ACY-1035/veh), VPS36 (ProbeSet 11739960_a_at) / RFU SYPL1 (11715823_x_at) / Fold change /veh SYPL1 (11715823_x_at) / RFU IGFBP7 (11715501_s_at) / Fold change /veh IGFBP7 (11715501_s_at) / RFU REEP3 (11722064_at) / Fold change /veh REEP3 (11722064_at) / RFU IGLL1 (11728026_x_at) / Fold change /veh IGLL1 (11728026_x_at): dose or concentration left out as unconfirmed.

`Nc1ccc(-c2cccs2)cc1NC(=O)c1ccc2c(c1)cc(C1CC1)n2CCN1CCOCC1` [ACY-1035]: the “Fold change vs veh, ZNF330” value came to 0.88.
